SMILES strings stand for the structures.

T1 sequence (P12931 whole entry): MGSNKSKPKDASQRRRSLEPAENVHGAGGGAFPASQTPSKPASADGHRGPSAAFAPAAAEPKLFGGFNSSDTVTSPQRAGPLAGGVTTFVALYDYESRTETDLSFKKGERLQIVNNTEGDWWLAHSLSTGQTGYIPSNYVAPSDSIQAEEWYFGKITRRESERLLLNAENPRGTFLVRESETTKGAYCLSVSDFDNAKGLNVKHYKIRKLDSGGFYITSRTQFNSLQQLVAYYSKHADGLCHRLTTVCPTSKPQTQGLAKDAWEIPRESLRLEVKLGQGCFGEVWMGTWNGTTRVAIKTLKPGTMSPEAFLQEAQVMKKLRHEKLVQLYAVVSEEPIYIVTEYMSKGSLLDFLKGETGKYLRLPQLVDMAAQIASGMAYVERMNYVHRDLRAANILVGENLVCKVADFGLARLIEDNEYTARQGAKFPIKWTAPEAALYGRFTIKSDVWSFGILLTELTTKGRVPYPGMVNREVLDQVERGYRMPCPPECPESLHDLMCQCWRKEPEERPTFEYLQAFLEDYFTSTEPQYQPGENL

One test concerns the target T1, Src kinase (Homo sapiens, UniProt P12931).
T1 construct: purchased Upstate Bioteolnology (sic; Upstate Biotechnology); later HMR stock 27597-019E1 #14-117
Briefly: Phosphorylation assay of Src kinase inhibitors (radiometric, 96 well filter plate). Type of test: biochemical. To be noted: IC50, duplicates, tested in the range of 400-0.098 µM; 10 µM peptide substrate (FIYGAFKKKKNH2), 5 µM unlabeled ATP, room temperature 30 min. The method in brief:
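Radiometric filter-plate assay: Src kinase (1:100 dilution) was incubated with 10 μM peptide FIYGAFKKK-NH2, 5 μM unlabeled ATP and radiolabeled ATP for 30 min at room temperature. Reactions were stopped with 150 mM H3PO4, the peptide was captured on phosphocellulose and scintillation counted. Ki values were determined for some compounds.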
The compound `NC(=O)CNC(=O)c1cc2ccccc2cc1OCCNC(=O)[C@@H](N)Cc1ccc(O)cc1` [Example 92, 3-[2-[[[1-OXO-2(S)-AMINO-3-HYDROXY- PHENYL)]PROPYL]AMINO]ETHOXY]NAPHTHALENE-2-(N-] displayed a half-inhibitory concentration (IC50) of 3.4 µM.

Staying with this test, now noted: duplicates, tested in the range of 400-0.098 µM; 10 µM peptide substrate (FIYGAFKKKKNH2), 5 µM unlabeled ATP, room temperature 30 min; read-out: IC50.
On to `NC(=O)CNC(=O)c1cc2ccccc2cc1/N=C(/OCCCCNC(=O)C(N)Cc1ccc(O)cc1)C(F)(F)F` (stereo not shown) [Example 127, 3-[[1-TRIFLUOROMETHYL][1-[4-[[[1- OXO-2-AMINO-3-HYDROXYPHENYL)]- PROPYL]AMINO]BUTOXY]]- METHYLENIMINO]-NAPHTHALENE-2- [N-ACETAMIDO]CARBOXAMIDE], for which the IC50 amounted to 19 µM.

Consider `CC(C)C[C@H](N)C(=O)NCCCCOc1cc2ccccc2cc1C(=O)NCC(N)=O` [Example 15, 3-[4-[[2(S)-AMINO-3-(ISOPROPYL)-1- OXOPROPYL]AMINO]BUTOXY]- NAPHTHALENE-2-[N-(2- AMIDOMETHYL)]CARBOXAMIDE], for which the IC50 turned out to be 4.8 µM.

For `NC(=O)CNC(=O)c1cc2ccccc2cc1OCCCCNC(=O)[C@@H](N)Cc1ccccn1` [Example 47, 3-[[4-[[2(S)-AMINO-3(PYRIDIN-2-YL)-1- OXO]PROPYL]AMINO]BUTOXY]- NAPHTHALENE-2-(N-ACETAMIDO)- CARBOXAMIDE], the IC50 was 17 µM.

As to `NC(=O)CNC(=O)c1cc2ccccc2cc1NC(=O)CCCCNC(=O)[C@@H](N)Cc1ccc(O)cc1` [Example 35, 3-[[[[[[2(S)-AMINO-3-(4-HYDROXY- PHENYL)-1-OXO]PROPYL]AMINO]- BUTYL]CARBONYL] AMINO]- NAPHTHALENE-2-(N- ACETAMIDO)CARBOXAMIDE], the IC50 was found to be 209 µM.

As to `CN(CCCCOc1cc2ccccc2cc1C(=O)NCC(N)=O)C(=O)C(N)Cc1csc2ccccc12` (stereo not shown) [Example 153, 3-[[[4-[3-(BENZOTHIOPHEN-3-YL)-2- AMINO-1-OXO]PROPYL](N-METHYL)- AMINO]BUTOXY]-NAPHTHALENE-2- (N-ACETAMIDO)CARBOXAMIDE], the IC50 is 0.33 µM.

Consider `NC(=O)CNC(=O)c1cc(-c2ccccc2)ccc1OCCCCNC(=O)C(N)Cc1ccc(O)cc1` (stereo in doubt) [Compound 144, (2S)-2-amino-N-(4-{2-[N-(carbamoylmethyl)carbamoyl]-4-phenylphenoxy}butyl)-3-(4-hydroxyphenyl)propanamide], for which the concentration for half-maximal inhibition (IC50) is 30 µM.

Consider `NC(=O)CCNC(=O)c1cc2ccccc2cc1OCCCCNC(=O)[C@@H](N)Cc1ccc(O)cc1` [Example 102], for which the IC50 was found to be 52 µM.

For the compound `CNC(=O)[C@@H](Cc1cccc(C(=O)OC)c1)C(=O)NCCCCOc1cc2ccccc2cc1C(=O)NCC(N)=O` [Example 148, 3-[[4-[N-[1-OXO-2-(N-METHYLAMINO- CARBONYL)-3-[(3-(METHOXY- CARBONYL)PHENYL]]PROPYL]- AMINO]BUTOXY]-NAPHTHALENE-2- (N-ACETAMIDO)CARBOXAMIDE], the IC50 was determined as 203 µM.

For the compound `NC(=O)CNC(=O)c1cc2ccccc2cc1OCCCCNC(=O)[C@@H](N)Cc1ccc(Cl)cc1` [Example 42, 3-[[4-[(2(S)-AMINO-3-(4-CHLORO- PHENYL)-1-OXO)PROPYL]AMINO]- BUTOXY]-NAPHTHALENE-2- (N-ACETAMIDO)CARBOXAMIDE], the IC50 was found to be 0.88 µM.

On to `NC(=O)CNC(=O)c1cc2ccccc2cc1OCCCCNC(=O)[C@@H](N)CC1=CS(=O)(=O)c2ccccc21` [Compound 155, (2S)-2-amino-3-(1,1-dioxobenzo[b]thiophen-3-yl)-N-(4-{3-[N-(carbamoylmethyl)carbamoyl](2-naphthyloxy)}butyl)propanamide], for which the IC50 worked out at 5 µM.

Take `NC(=O)CC[C@H](N)C(=O)NCCCCOc1cc2ccccc2cc1C(=O)NCC(N)=O` [Example 70, 3-[4-[[(1-OXO-2(S)-AMINO-4-AMINO- CARBONYL)BUTYL]AMINO]BUTOXY]- NAPHTHALENE-2-(N-ACETAMIDO)- CARBOXAMIDE]: the IC50 is 370 µM.

As to `NC(=O)CC(=O)Nc1cc2ccccc2cc1OCCCCNC(=O)[C@@H](N)Cc1ccc(O)cc1` [Compound 151, (2S)-2-amino-N-{4-[3-(2-carbamoylacetylamino)(2-naphthyloxy)]butyl}-3-(4-hydroxyphenyl)propanamide], the IC50 turned out to be 5 µM.

By IC50 is commonly meant the concentration needed to halve the response being measured.

Source of the values: US20040014676A1, “SRC kinase inhibitors useful for treating osteoporosis” (priority 2001, published 2004).
